We go through 9 molecules from patent US4382943A, “Anti-allergic aryl ether derivatives” (Boehringer Mannheim GmbH, priority 1980, dated 1983).

Where a name gives a salt, the structure may show the parent alone.

The test concerns antigen induced bronchospasm in passively sensitized guinea pigs. The experiment in a line: Inhibition of antigen induced bronchospasm (Br Sp) in passively sensitized guinea pigs. To be noted: Cavia porcellus, po, 0.05 h, 60 min before antigen, 3 min after antigen; for inhibition in vivo at 0.75 mg/kg: 0.75 mg/kg p.o.; for inhibition in vivo at 0.38 mg/kg: 0.38 mg/kg p.o. Type of test: in vivo, guinea pig. As for the experimental part:
Specifically, tests were run as follows: […] Equal volumes of saline solution of antigen (5 mg/ml) and Freund's complete adjuvant were emulsified and 0.15 ml injected into each hind foot of adult male guinea pigs (Davies and Johnson: Int. Arch. Allergy 41,648-654 (1971)). The animals were bled and the pooled serum stored at -20° C. Passive Sensitization Injections of 0.5 ml antiserum of 1:50 dilution were given i.v. 24-48 h before challenge. Guinea pigs were anaesthetized with phenobarbital sodium (40 mg/kg i.p.). Cannulae were tied into the trachea and the jugular vein and the lung inflated with a pump at a rate of 72 strokes/min and a constant stroke volume of 6-8 ml. Bronchospasm, provoked by injecting ovalbumin i.v. was measured as described by Konzett, H. and R. Rossler, "Versuchsanordnung su Untersuchungen an der Bronchialmuskulatur" Naunyn-Schmiedebergs, Arch. exp. Path. Pharmak. 195, 71-74 (1940) and modified by Collier, […] and M. Schachter: "The Bronchoconstrictor Action of Bradykinin in the Guinea-Pig" Brit. J. Pharmacol. 15, 290 (1960). The drugs were applied per os 60 minutes before the antigen. For calculation the following formula was used: % Bronchospasm (b-a)/(m-a)×100 b=Bronchospasm after antigen injection, measured in mm from tracing m=maximum height of tracing in mm with arm of the tracheacannula clamped a=pre injection height of the tracing in mm % inhibition of bronchospasm was calculated by comparing control groups with drug pretreated groups 3 minutes after antigen application.

Regarding `O=C(Cc1ccccc1)NC1CCN(CCCOc2ccc3c4c(c(=O)oc3c2)CCC4)CC1` [Example 8, 2,3-dihydro-7-[3-(4-phenylacetamido-piperidino)-propoxy]-cyclopenta-[c][1]benzopyran-4(1H)-one], the inhibition in vivo (in general, the change of the read-out against control, counted positive when it falls) at 0.75 mg/kg was determined as 70%.
Regarding `CC(=O)c1c(OCCCN2CCC(NC(=O)c3ccccc3)CC2)ccc2c3c(c(=O)oc12)CCC3` [Example 14, 6-acetyl-7-[3-(4-benzamido-piperidino)-propoxy]-2,3-dihydro-cyclopenta[c][1]benzopyran-4(1H)-one], the inhibition in vivo at 0.38 mg/kg was 79%.
Turning to `Cc1ccccc1C(=O)NC1CCN(CCCOc2ccc3c4c(c(=O)oc3c2)CCC4)CC1` [Example 4, 2,3-dihydro-7-{3-[4-(2-methylbenzamido)-piperidino]-propoxy}-cyclopenta[c][1]benzopyran-4(1H)-one], the inhibition in vivo at 0.75 mg/kg amounted to 76%.
As to `O=C(NC1CCN(CCCOc2ccc3c4c(c(=O)oc3c2)CCC4)CC1)c1ccc(F)cc1` [Example 2, 2,3-dihydro-7-{3-[4-(4-fluorobenzamido)-piperidino]-propoxy}-cyclopenta[c][1]benzopyran-4(1H)-one hydrochloride], the inhibition in vivo at 0.38 mg/kg came out at 67%.
On to `COc1ccc(C(=O)NC2CCN(CCCOc3ccc4c5c(c(=O)oc4c3)CCCC5)CC2)cc1` [Example 18, 3-{3-[4-(4-methoxybenzamido)-piperidino]-propoxy}-7,8,9,10-tetrahydro-6H--dibenzo[b,d]-pyran-6-one], for which the inhibition in vivo at 0.38 mg/kg came to 35% and the inhibition in vivo at 0.75 mg/kg was 87%.
With `CC(C)(C)NCC(O)c1cc(O)cc(O)c1` (stereo not drawn) [Terbutalin, reference compound], the inhibition in vivo at 0.1 mg/kg (0.1 mg/kg p.o.) was 12%. For the same molecule, the inhibition in vivo at 1 mg/kg (1.0 mg/kg p.o.) stood at 52%.
With `O=C(NC1CCN(CCCOc2ccc3c4c(c(=O)oc3c2)CCCC4)CC1)c1ccc(F)cc1` [Example 17, 3-{3-[4-(4-fluorobenzamido)-piperidino]-propoxy}-7,8,9,10-tetrahydro-6H--dibenzo[b,d]pyran-6-one hydrochloride], the inhibition in vivo at 0.38 mg/kg was determined as 58%.
Still for that read-out and setting: the same measure for `O=C(NC1CCN(CCCOc2ccc3c4c(c(=O)oc3c2)CCC4)CC1)c1ccccc1` [Example 1, 7-[3-(4-Benzamidopiperidino)-propoxy]-2,3-dihydrocyclopenta[c][1]benzopyran-4(1H)one hydrochloride]: 47%.
Consider `Cc1ccccc1C(=O)NC1CCN(CCCOc2ccc3c4c(c(=O)oc3c2)CCCC4)CC1` [Example 21, 3-{3-[4-(2-methyl-benzamido)-piperidino]-propoxy}-7,8,9,10-tetrahydro-6H--dibenzo[b,d]pyran-6-one], for which the inhibition in vivo at 0.38 mg/kg came out at 51% and the inhibition in vivo at 0.75 mg/kg stood at 78%.
